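The compound was tested at five concentrations on cells cultured in 96-well plates, with a 48-hour exposure period. GI50 = concentration required for 50% inhibition of growth. TGI: total growth inhibition.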
Experiments:
Experiment in all cases: NCI anticancer screen, dose series, 48 h
[1] = test system: NCI/ADR-RES ovarian
[2] = test system: T-47D breast
[3] = test system: PC-3 prostate
[4] = test system: DU-145 prostate
[5] = test system: HS 578T breast
[6] = test system: XF 498 CNS
[7] = test system: DLD-1 colon
[8] = test system: DMS 273 small cell lung
[9] = test system: LXFL 529 NSCLC

Structure (SMILES)	TGI [1]	TGI [2]	TGI [3]	TGI [4]	TGI [5]	GI50 [1]	GI50 [2]	GI50 [3]	GI50 [4]	GI50 [5]	TGI [6]	TGI [7]	TGI [8]	TGI [9]
Cc1cc(S(=O)(=O)Nc2nc(N)nc(N3N=CCC3C)n2)c(S)cc1Cl (stereo not drawn)	> 10 µM	> 10 µM	> 10 µM	> 10 µM	> 10 µM									
CC#CC(O)(C(=O)OC1CCCN(C)C1)C1=CC=CCC1 (stereo not drawn)	> 100 µM	> 100 µM	> 100 µM	> 100 µM	> 100 µM									
COC(=O)CCC/C=C\C[C@H]1C=CC(=O)/C1=C/C[C@@H](O)CCc1cccc(C(F)(F)F)c1	10.9 µM	17 µM	7.6 µM	10 µM	50 µM	2.81 µM	3.45 µM	2.63 µM	2.59 µM	12.2 µM				
S=C(Nc1ccc(-c2nc3ccccc3[nH]2)cc1)NC1CCCCC1	82.2 µM					28.6 µM	27 µM	36.6 µM	37.9 µM	26.1 µM				
CN(C)CCNc1nc2ccccc2c2c1c1c(n2Cc2ccccc2)-c2ccccc2C1=O	23.1 µM	50.6 µM		30.6 µM	31.5 µM	5.77 µM	19.4 µM		15 µM	11.3 µM				
COc1cc2nc(-c3ccc(C(F)(F)F)cc3)cc(OCCCN3CCOCC3)c2cc1OC	22.7 µM	23.8 µM	16.5 µM	24 µM	9.24 µM	0.64 µM	0.654 µM	2.19 µM	10.1 µM	2.25 µM				
Nc1nc(-c2cccc([N+](=O)[O-])c2)c(Br)c(=O)[nH]1	> 100 µM	> 100 µM	> 100 µM	> 100 µM	> 100 µM									
CC[N+](CCCCCCCCCC[N+](CC)(c1ccccn1)c1ccccn1)(c1ccccn1)c1ccccn1	53.8 µM	1.7 µM	11.2 µM	12.4 µM		5.28 µM	0.295 µM	0.459 µM	0.858 µM					
Oc1ccc(Br)cc1Sc1cc(Br)ccc1O	24.3 µM	17.7 µM	29.4 µM	28.4 µM	25.8 µM	5.06 µM	4.36 µM	10.6 µM	11.7 µM	4.28 µM				
CCCCNc1nc(NC(C)(C)C)nc(NC(C)(C)C)n1	> 100 µM	> 100 µM	> 100 µM	> 100 µM	> 100 µM	3.31 µM	15.2 µM	4.26 µM	8.82 µM	21.1 µM				
COc1cc(-c2cnn(C)c2)ccc1Nc1ncc2ccnc(N[C@@H](C)C(C)(C)C)c2n1	> 100 µM	> 100 µM	> 100 µM	> 100 µM	> 100 µM	> 43.4 µM	> 100 µM	> 96.1 µM	> 100 µM	> 79 µM				
CC(=O)O/N=C/c1ncccc1CO											> 100 µM	> 100 µM	> 100 µM	> 100 µM
CN1CCN(Cc2ccc(NC(=O)c3cncc(C#Cc4cnc(N)c5ccc(F)cc45)c3)cc2C(F)(F)F)CC1	10.4 µM	11.4 µM	6.68 µM	5.01 µM	12.2 µM	3.22 µM	4.53 µM	1.39 µM	1.25 µM	1.17 µM				
CC(=O)CC1CCC(=O)CCC(=O)OC(CC(C)=O)CCC(=O)CCC(=O)O1 (stereo not drawn)	> 100 µM	> 100 µM	> 100 µM	> 100 µM	> 100 µM									
O=C(Nc1ccc(Cl)cc1)Nc1ccc(Cl)c(Cl)c1	> 100 µM	30.6 µM	> 100 µM	> 100 µM	85 µM	3.6 µM	3.05 µM	2.97 µM	4.08 µM	4.58 µM				
c1ccc2c(c1)[I+]c1ccccc1-2	> 50 µM	> 50 µM	> 50 µM	> 50 µM	> 50 µM	> 50 µM	> 50 µM	> 50 µM	35.6 µM	> 50 µM				
c1cnc2c(c1)-n1cccc1C1(CCSCC1)NN2											> 100 µM		> 100 µM	
CC(C)=CC(C(O)c1ccccc1)S(=O)(=O)c1nccn1C (stereo not drawn)											> 100 µM	> 100 µM	> 100 µM	> 100 µM
O=[N+]([O-])c1c(/C=N/Nc2ccccc2)oc(-c2ccc3c(c2)OCO3)c1-c1ccc2c(c1)OCO2											> 100 µM	> 100 µM		> 100 µM
CC(C)c1ccc(Cc2cnc(NC(=O)c3cc(Br)cs3)s2)cc1	5.31 µM	> 100 µM	> 100 µM	> 100 µM	58.2 µM	1.73 µM	4.27 µM	2.23 µM	3.67 µM	2.48 µM				
CC(=O)Oc1cc(C)ccc1[C@]1(C)CC[C@H](C)/C1=C\Br	7.94 µM	23.4 µM	12.3 µM	16.9 µM	13.9 µM	2.68 µM	5.38 µM	3.33 µM	4.87 µM	3.03 µM				
CCOc1ccc(/C=C/C(=O)c2ccccc2)cc1	56.3 µM	48.7 µM	61.4 µM	14.9 µM	56.3 µM	18.3 µM	14.2 µM	23.9 µM	3.95 µM	20.4 µM				
COc1ccc2c(c1)C(=O)CC(N)C2 (stereo not drawn)	> 100 µM	> 100 µM	> 100 µM	> 100 µM	> 100 µM									
CCOC(=O)CCC(=O)C1c2cccc(O)c2C(=O)c2c(O)cccc21											0.551 µM	3.21 µM	2.73 µM	
COc1cc(-c2nc3ccc(C)cc3[nH]2)ccc1OCC(=O)N=Nc1c(O)[nH]c2ccccc12	> 100 µM			4.39 µM	4.77 µM	> 100 µM			2.05 µM	2 µM				
O=c1ccn(C2OC(CO)C(O)C2O)c(=O)[nH]1 (stereo not drawn)	> 1000 µM	> 1000 µM	> 1000 µM	> 1000 µM	> 1000 µM	> 1000 µM	> 1000 µM	> 1000 µM		> 1000 µM				
